Results on 19 compounds are retold here after patent publication US20160002204A1 (Board of Regents, The University of Texas System, priority 2014, published 2016).

Assay [1] has as its target T1, GLS1 (purified recombinant human GAC) (Homo sapiens, UniProt O94925).
T1 sequence (O94925 55-598 isoform O94925-3 limits assumed): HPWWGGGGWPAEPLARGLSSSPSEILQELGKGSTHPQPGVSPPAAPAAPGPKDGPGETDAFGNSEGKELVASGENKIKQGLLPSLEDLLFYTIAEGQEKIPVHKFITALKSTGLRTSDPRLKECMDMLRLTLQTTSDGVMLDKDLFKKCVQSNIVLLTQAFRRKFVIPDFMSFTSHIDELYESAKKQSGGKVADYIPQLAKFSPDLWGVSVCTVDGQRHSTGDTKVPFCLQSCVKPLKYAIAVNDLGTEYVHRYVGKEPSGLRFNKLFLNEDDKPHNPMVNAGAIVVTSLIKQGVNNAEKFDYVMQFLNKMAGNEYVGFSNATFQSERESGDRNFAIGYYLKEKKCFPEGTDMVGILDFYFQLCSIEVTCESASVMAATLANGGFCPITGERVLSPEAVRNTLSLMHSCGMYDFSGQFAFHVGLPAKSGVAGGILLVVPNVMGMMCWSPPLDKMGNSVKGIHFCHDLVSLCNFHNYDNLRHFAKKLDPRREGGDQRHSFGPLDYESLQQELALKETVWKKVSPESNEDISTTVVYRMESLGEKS
Put plainly: GLS1 enzymatic activity assay (dual-coupled, Amplex UltraRed/resorufin). It counts as biochemical. In short, it runs like this:
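Recombinant human GAC (2 nM) preincubated with 50 mM potassium phosphate, then inhibitor (10 min each, RT); 1 mM glutamine, pH 7.4 Hepes buffer, 1% DMSO. Glutamate coupled via glutamate oxidase/HRP to resorufin (Ex 530/Em 590), kinetic or 20-min endpoint; IC50 by four-parameter logistic fit.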

For the next assay, the system named is A549 cells. The assay is described as follows: A549 proliferation (viability) assay, Cell Titer Fluor, 72 hours. Type of assay: cell-based. The settings on record: Homo sapiens. In short, it runs like this:
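Fluorescence read-out (Cell Titer Fluor, 30 min at 37 °C after reagent) after 72 h compound exposure of A549 cells; EC50 by four-parameter logistic curve fit. Cells: 1000/well, RPMI 1640 + 10% dialyzed FBS, 0.5% DMSO final.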

With `CC(=O)OC(C(=O)Nc1ccn(CC[C@H](F)Cn2cc(C(=O)NCc3cccc(OC(F)(F)F)c3)nn2)c(=O)c1F)c1ccccc1` (stereo partly drawn) [Example 305, (S)-[(3-fluoro-1-{3-fluoro-4-[4-({[3-(trifluoromethoxy)phenyl]methyl}carbamoyl)-1H-1,2,3-triazol-1-yl]butyl}-2-oxo-1,2-dihydropyridin-4-yl)carbamoyl](phenyl)methyl acetate], in assay [1], the IC50 is < 0.1 µM. The EC50 with A549 cells is < 0.1 µM.
Turning to `O=C(Nc1ccn(CCC(F)Cn2cc(C(=O)NCc3cccc(OC(F)(F)F)c3)nn2)c(=O)n1)NC1CCC1` (centres unmarked) [Example 499, 1-(4-{4-[(cyclobutylcarbamoyl)amino]-2-oxo-1,2-dihydropyrimidin-1-yl}-2-fluorobutyl)-N-{[3-(trifluoromethoxy)phenyl]methyl}-1H-1,2,3-triazole-4-carboxamide], in assay [1], the IC50 was 0.5 to 5 µM. Further, in the assay on A549 cells, the EC50 was > 5 µM.
`O=C(NCc1cccc(OC(F)(F)F)c1)c1cn(CC(F)CCn2ccc(NC(=O)C3CCCCC3)c(F)c2=O)nn1` (centres unmarked) [Example 341, 1-[4-(4-cyclohexaneamido-3-fluoro-2-oxo-1,2-dihydropyridin-1-yl)-2-fluorobutyl]-N-{[3-(trifluoromethoxy)phenyl]methyl}-1H-1,2,3-triazole-4-carboxamide]: the IC50 in assay [1] is < 0.1 µM. Besides, in the assay on A549 cells, the EC50 was < 0.1 µM.
Consider `CC(OC(=O)Nc1ccn(CCC(F)Cn2cc(C(=O)NCc3cccc(OC(F)(F)F)c3)nn2)c(=O)n1)c1ccccc1` (centres unmarked) [Example 497, 1-phenylethyl N-(1-{3-fluoro-4-[4-({[3-(trifluoromethoxy)phenyl]methyl}carbamoyl)-1H-1,2,3-triazol-1-yl]butyl}-2-oxo-1,2-dihydropyrimidin-4-yl)carbamate], for which the IC50 in assay [1] was < 0.1 µM. The same compound had an EC50 in the assay on A549 cells of 0.1 to 0.5 µM.
Regarding `COC1CCC(CC(=O)Nc2ccn(CCCCn3cc(C(=O)NCc4cccc(OC(F)(F)F)c4)nn3)c(=O)c2)CC1` (centres unmarked) [Example 170, 1-(4-{4-[2-(4-methoxycyclohexyl)acetamido]-2-oxo-1,2-dihydropyridin-1-yl}butyl)-N-{[3-(trifluoromethoxy)phenyl]methyl}-1H-1,2,3-triazole-4-carboxamide], in assay [1], the IC50 is < 0.1 µM. This compound also gave an EC50 in the assay with A549 cells of 0.1 to 0.5 µM.
On to `O=C(Cc1cccc(OC(F)(F)F)c1)Nc1ccn(CCCCc2nnc(C(=O)NCc3cc(OC(F)(F)F)ccc3F)s2)c(=O)c1` [Example 459, N-{[2-fluoro-5-(trifluoromethoxy)phenyl]methyl}-5-[4-(2-oxo-4-{2-[3-(trifluoromethoxy)phenyl]acetamido}-1,2-dihydropyridin-1-yl)butyl]-1,3,4-thiadiazole-2-carboxamide], for which, in assay [1], the IC50 was < 0.1 µM. The EC50 with A549 cells was < 0.1 µM.
As for `O=C(NCc1cccc(OC(F)(F)F)c1)c1cn(CC(F)CCn2ccc(NC(=O)[C@@H](O)c3ccccc3)cc2=O)nn1` (stereo partly drawn) [Example 224, 1-(2-fluoro-4-{4-[(2S)-2-hydroxy-2-phenylacetamido]-2-oxo-1,2-dihydropyridin-1-yl}butyl)-N-{[3-(trifluoromethoxy)phenyl]methyl}-1H-1,2,3-triazole-4-carboxamide], in assay [1], the IC50 was < 0.1 µM. Moreover, the EC50 in the assay on A549 cells is < 0.1 µM.
With `CC(C)(C)OC(=O)N[C@H]1CC[C@@H](CC(=O)Nc2ccn(CCC(F)Cn3cc(C(=O)NCc4cccc(OC(F)(F)F)c4)nn3)c(=O)c2)CC1` (some centres unmarked) [Example 241, tert-butyl N-[(1s,4s)-4-{[(1-{3-fluoro-4-[4-({[3-(trifluoromethoxy)phenyl]methyl}carbamoyl)-1H-1,2,3-triazol-1-yl]butyl}-2-oxo-1,2-dihydropyridin-4-yl)carbamoyl]methyl}cyclohexyl]carbamate], in assay [1], the IC50 is < 0.1 µM. For the same compound, the EC50 in the assay on A549 cells is < 0.1 µM.
In the case of `Cc1ccc(CC(=O)Nc2ccn(CCC(F)Cn3cc(C(=O)NCc4cccc(OC(F)(F)F)c4)nn3)c(=O)c2)cn1` (centres unmarked) [Example 248, 1-(2-fluoro-4-{4-[2-(6-methylpyridin-3-yl)acetamido]-2-oxo-1,2-dihydropyridin-1-yl}butyl)-N-{[3-(trifluoromethoxy)phenyl]methyl}-1H-1,2,3-triazole-4-carboxamide], the IC50 in assay [1] was < 0.1 µM. The EC50 in the assay on A549 cells fell in the range of 0.5 to 5 µM.
For `CC(C)(C)OC(=O)N[C@@H]1CCC[C@@H](C(=O)Nc2ccn(CCC(F)Cn3cc(C(=O)NCc4cccc(OC(F)(F)F)c4)nn3)c(=O)c2)C1` (stereo partly drawn) [Example 249, tert-butyl N-[(1R,3R)-3-[(1-{3-fluoro-4-[4-({[3-(trifluoromethoxy)phenyl]methyl}carbamoyl)-1H-1,2,3-triazol-1-yl]butyl}-2-oxo-1,2-dihydropyridin-4-yl)carbamoyl]cyclohexyl]carbamate], the IC50 in assay [1] is < 0.1 µM. In addition, the EC50 in the assay with A549 cells was < 0.1 µM.
For the compound `CC(C)(C)OC(=O)N1CCC(CC(=O)Nc2ccn(CC(F)CCn3cc(C(=O)NCc4cccc(OC(F)(F)F)c4)nn3)c(=O)c2F)CC1` (centres unmarked) [Example 314, tert-butyl 4-{[(3-fluoro-1-{2-fluoro-4-[4-({[3-(trifluoro-methoxy)phenyl]methyl}carbamoyl)-1H-1,2,3-triazol-1-yl]butyl}-2-oxo-1,2-dihydropyridin-4-yl)carbamoyl]methyl}piperidine-1-carboxylate], the IC50 in assay [1] was in the range of 0.5 to 5 µM. The EC50 with A549 cells lay in the range of 0.1 to 0.5 µM.
The corresponding values for `O=C(Nc1ccn(CCC(F)Cn2cc(C(=O)NCc3cccc(OC(F)(F)F)c3)nn2)c(=O)n1)OC1CCC(F)(F)CC1` (centres unmarked) [Example 498, 4,4-difluorocyclohexyl N-(1-{3-fluoro-4-[4-({[3-(trifluoro-methoxy)phenyl]methyl}carbamoyl)-1H-1,2,3-triazol-1-yl]butyl}-2-oxo-1,2-dihydropyrimidin-4-yl)carbamate] are < 0.1 µM and < 0.1 µM.
As to `COc1ccc(CC(=O)Nc2ccn(CCC(F)Cn3cc(C(=O)NCc4cccc(OC(F)(F)F)c4)nn3)c(=O)c2)cn1` (centres unmarked) [Example 240, 1-(2-fluoro-4-{4-[2-(6-methoxypyridin-3-yl)acetamido]-2-oxo-1,2-dihydropyridin-1-yl}butyl)-N-{[3-(trifluoromethoxy)phenyl]methyl}-1H-1,2,3-triazole-4-carboxamide], the IC50 in assay [1] was < 0.1 µM. The EC50 in the assay on A549 cells fell in the range of 0.5 to 5 µM.
Turning to `O=C(CN1CCCC1)Nc1ccn(CCC(F)Cn2cc(C(=O)NCc3cccc(OC(F)(F)F)c3)nn2)c(=O)c1` (centres unmarked) [Example 270, 1-(2-fluoro-4-{2-oxo-4-[2-(pyrrolidin-1-yl)acetamido]-1,2-dihydropyridin-1-yl}butyl)-N-{[3-(trifluoromethoxy)phenyl]methyl}-1H-1,2,3-triazole-4-carboxamide], in assay [1], the IC50 was in the range of 0.1 to 0.5 µM. In the assay on A549 cells, this compound had an EC50 of 0.5 to 5 µM.
As to `O=C(CC1CCN(C(=O)CC(F)(F)F)CC1)Nc1ccn(CCC(F)Cn2cc(C(=O)NCc3cccc(OC(F)(F)F)c3)nn2)c(=O)c1F` (centres unmarked) [Example 301, 1-[2-fluoro-4-(3-fluoro-2-oxo-4-{2-[1-(3,3,3-trifluoropropanoyl)piperidin-4-yl]acetamido}-1,2-dihydropyridin-1-yl)butyl]-N-{[3-(trifluoromethoxy)phenyl]methyl}-1H-1,2,3-triazole-4-carboxamide], the IC50 in assay [1] is < 0.1 µM. Also, the EC50 with A549 cells was < 0.1 µM.
`CC(C)(C)OC(=O)N1CCC(CC(=O)Nc2ccn(CCC(F)Cn3cc(C(=O)NCc4cccc(OC(F)(F)F)c4)nn3)c(=O)c2)CC1` (centres unmarked) [Example 219, tert-butyl 4-{[(1-{3-fluoro-4-[4-({[3-(trifluoromethoxy)phenyl]methyl}carbamoyl)-1H-1,2,3-triazol-1-yl]butyl}-2-oxo-1,2-dihydropyridin-4-yl)carbamoyl]methyl}piperidine-1-carboxylate]: the IC50 in assay [1] was < 0.1 µM. Further, the EC50 in the assay on A549 cells is < 0.1 µM.
As for `O=C(NCc1cccc(OC(F)(F)F)c1)c1cn(CC(F)CCn2ccc(COc3ccccc3F)cc2=O)nn1` (centres unmarked) [Example 473, 1-{2-fluoro-4-[4-(2-fluorophenoxymethyl)-2-oxo-1,2-dihydropyridin-1-yl]butyl}-N-{[3-(trifluoromethoxy)phenyl]methyl}-1H-1,2,3-triazole-4-carboxamide], in assay [1], the IC50 was < 0.1 µM. This compound yielded an EC50 in the assay with A549 cells of 0.1 to 0.5 µM.
For the compound `Cc1ccc(CNC(=O)c2cn(CCCCn3ccc(NC(=O)CC4CCCCC4)cc3=O)nn2)cn1` [Example 145, 1-{4-[4-(2-cyclohexylacetamido)-2-oxo-1,2-dihydropyridin-1-yl]butyl}-N-[(6-methylpyridin-3-yl)methyl]-1H-1,2,3-triazole-4-carboxamide], in assay [1], the IC50 is < 0.1 µM. In the assay on A549 cells, this compound came in with an EC50 of 0.1 to 0.5 µM.
With `CC(C)COC(=O)Nc1ccn(CCCCc2ccc(NC(=O)Cc3cccc(OC(F)(F)F)c3)nn2)c(=O)n1` [Example 104, 2-methylpropyl N-{2-oxo-1-[4-(6-{2-[3-(trifluoro-methoxy)phenyl]acetamido}pyridazin-3-yl)butyl]-1,2-dihydropyrimidin-4-yl}carbamate], in assay [1], the IC50 is < 0.1 µM. The EC50 in the assay on A549 cells is < 0.1 µM.

A word on the IC50: it is the midpoint of a concentration-inhibition curve. Usually EC50 stands for the midpoint of the concentration-response curve. A low value points to a more potent agent.
